Laboratory results published in ChEMBL document CHEMBL1129595, “Potent 6-desfluoro-8-methylquinolones as new lead compounds in antibacterial chemotherapy” (J Med Chem, 1996).
In brackets after ≈: the same amount, converted by molar mass.

Assays:
Staphylococcus aureus [1] = assay: In vitro antibacterial activity against Staphylococcus aureus CPX-R OBT 687; type: functional
Escherichia coli [2] = assay: In vitro antibacterial activity against Escherichia coli 120; type: functional
Proteus vulgaris = assay: In vitro antibacterial activity against Proteus vulgaris CNUR 6; type: functional
Escherichia coli [3] = assay: In vitro antibacterial activity against Escherichia coliCPX-R OBT 431; type: functional
Enterococcus faecalis [4] = assay: In vitro antibacterial activity against Enterococcus faecalis UCMC 39690; type: functional
Haemophilus influenzae = assay: In vitro antibacterial activity against Haemophilus influenzae; type: functional
DNA gyrase = DNA gyrase (Escherichia coli, UniProt P0AES4+P0AES6); assay: Inhibitory effect against Escherichia coli Gyrase in Supercoiling assay; type: protein-complex assay
Escherichia coli [5] = assay: In vitro antibacterial activity against Escherichia coli ATCC 25922; type: functional
Enterobacter cloacae = assay: In vitro antibacterial activity against Enterobacter cloacae OMNFI 174; type: functional
Staphylococcus aureus [6] = assay: In vitro antibacterial activity against Staphylococcus aureus ATCC 29213; type: functional
Pseudomonas aeruginosa [7] = assay: In vitro antibacterial activity against Pseudomonas aeruginosa OBT 307; type: functional
Klebsiella pneumoniae = assay: In vitro antibacterial activity against Klebsiella pneumoniae ATCC 10031; type: functional
Enterococcus faecalis [8] = assay: In vitro antibacterial activity against Enterococcus faecalis LEP Br; type: functional
Pseudomonas aeruginosa [9] = assay: In vitro antibacterial activity against Pseudomonas aeruginosa […] 9027; type: functional
Streptococcus pneumoniae = assay: In vitro antibacterial activity against Streptococcus pneumoniae I 0.43; type: functional
Streptococcus pyogenes = assay: In vitro antibacterial activity against Streptococcus pyogenes OMNFI BI; type: functional
Staphylococcus aureus [10] = assay: In vitro antibacterial activity against Staphylococcus aureus MPR 5; type: functional
Proteus mirabilis = assay: In vitro antibacterial activity against Proteus mirabilis OBT 505; type: functional
[11] = Mean MIC against gram negative; type: functional
[12] = Mean MIC against gram positive; type: functional
Staphylococcus aureus [13] = assay: In vitro antibacterial activity against Staphylococcus aureus M-R POMM 6214; type: functional
[14] = Mean MIC Against gram positive; type: functional

SMILES | MIC (Staphylococcus aureus [1]) [µg/mL] | MIC (Escherichia coli [2]) [µg/mL] | MIC (Proteus vulgaris) [µg/mL] | MIC (Escherichia coli [3]) [µg/mL] | MIC (Enterococcus faecalis [4]) [µg/mL] | MIC (Haemophilus influenzae) [µg/mL] | IC50 (DNA gyrase) [µM] | MIC (Escherichia coli [5]) [µg/mL] | MIC (Enterobacter cloacae) [µg/mL] | MIC (Staphylococcus aureus [6]) [µg/mL] | MIC (Pseudomonas aeruginosa [7]) [µg/mL] | MIC (Klebsiella pneumoniae) [µg/mL] | MIC (Enterococcus faecalis [8]) [µg/mL] | MIC (Pseudomonas aeruginosa [9]) [µg/mL] | MIC (Streptococcus pneumoniae) [µg/mL] | MIC (Streptococcus pyogenes) [µg/mL] | MIC (Staphylococcus aureus [10]) [µg/mL] | MIC (Proteus mirabilis) [µg/mL] | MIC [11] [µg/mL] | MIC (Staphylococcus aureus [13]) [µg/mL] | also measured
Cc1c(N2CCc3ccccc3C2)c(F)cc2c(=O)c(C(=O)O)cn(C3CC3)c12 | 1 (≈ 2.55 µM) | 0.25 (≈ 0.637 µM) | 4 (≈ 10.2 µM) | > 16 | 0.06 (≈ 0.153 µM) | < 0.016 | 7.64 | 0.125 (≈ 0.319 µM) | 0.5 (≈ 1.27 µM) | < 0.016 | 16 (≈ 40.8 µM) | 0.06 (≈ 0.153 µM) | 0.5 (≈ 1.27 µM) | 4 (≈ 10.2 µM) | 0.25 (≈ 0.637 µM) | 0.03 (≈ 0.0764 µM) | < 0.016 | 4 (≈ 10.2 µM) | 0.869 (≈ 2.21 µM) | < 0.016 | MIC [12]: 0.074 µg/mL (≈ 0.189 µM)
O=C(O)c1cn(C2CC2)c2cc(N3CCc4ccccc4C3)c(F)cc2c1=O | 8 (≈ 21.1 µM) | 0.25 (≈ 0.661 µM) | > 16 | > 16 | 0.06 (≈ 0.159 µM) | < 0.016 | 28.5 | 0.25 (≈ 0.661 µM) | 1 (≈ 2.64 µM) | < 0.016 | 8 (≈ 21.1 µM) | 0.125 (≈ 0.33 µM) | 0.25 (≈ 0.661 µM) | 4 (≈ 10.6 µM) | 0.25 (≈ 0.661 µM) | 2 (≈ 5.29 µM) | < 0.016 | 4 (≈ 10.6 µM) | 1.15 (≈ 3.04 µM) | 0.25 (≈ 0.661 µM) | MIC [12]: 0.21 µg/mL (≈ 0.555 µM)
Cc1c(N2CCCCC2)c(N)cc2c(=O)c(C(=O)O)cn(C3CC3)c12 | 8 (≈ 23.4 µM) | 0.5 (≈ 1.46 µM) | > 16 | > 16 | 1 (≈ 2.93 µM) | < 0.016 | 9.37 | 0.125 (≈ 0.366 µM) | 1 (≈ 2.93 µM) | 0.05 (≈ 0.146 µM) | 16 (≈ 46.9 µM) | < 0.016 | 0.5 (≈ 1.46 µM) | 4 (≈ 11.7 µM) | 2 (≈ 5.86 µM) | 0.5 (≈ 1.46 µM) | < 0.016 | 4 (≈ 11.7 µM) | 1 (≈ 2.94 µM) | 0.125 (≈ 0.366 µM) | MIC [12]: 0.376 µg/mL (≈ 1.1 µM)
O=C(O)c1cn(C2CC2)c2cc(N3CCCCC3)c(F)cc2c1=O | > 16 | 0.25 (≈ 0.757 µM) | > 16 | > 16 | 0.25 (≈ 0.757 µM) | < 0.016 | 97.2 | 0.125 (≈ 0.378 µM) | 0.5 (≈ 1.51 µM) | 0.03 (≈ 0.0908 µM) | 4 (≈ 12.1 µM) | < 0.016 | 0.5 (≈ 1.51 µM) | 4 (≈ 12.1 µM) | 1 (≈ 3.03 µM) | 8 (≈ 24.2 µM) | 0.03 (≈ 0.0908 µM) | 2 (≈ 6.05 µM) | 0.71 (≈ 2.15 µM) | 0.25 (≈ 0.757 µM) | MIC [14]: 0.495 µg/mL (≈ 1.5 µM)
Cc1c(N2CCN(C)CC2)c(N)cc2c(=O)c(C(=O)O)cn(C3CC3)c12 | > 16 | 0.06 (≈ 0.168 µM) | 8 (≈ 22.4 µM) | > 16 | 4 (≈ 11.2 µM) | 0.03 (≈ 0.0842 µM) | 10.7 | 0.03 (≈ 0.0842 µM) | 0.125 (≈ 0.351 µM) | 1 (≈ 2.81 µM) | 8 (≈ 22.4 µM) | 0.03 (≈ 0.0842 µM) | 2 (≈ 5.61 µM) | 2 (≈ 5.61 µM) | 8 (≈ 22.4 µM) | 4 (≈ 11.2 µM) | 1 (≈ 2.81 µM) | 1 (≈ 2.81 µM) | 0.459 (≈ 1.29 µM) | 4 (≈ 11.2 µM) | MIC [12]: 3.36 µg/mL (≈ 9.44 µM)
